Laboratory results taken from ChEMBL document CHEMBL1201862, “PubChem BioAssay data set” (2004).
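Five concentrations, 48 hours, 96-well plates. Here, GI50 denotes the concentration required for 50% inhibition of growth.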 Active and inactive are the calls of the source. Cut-off read from the data, not from the text of the source: active = GI50 up to about 1.1 µM and inactive = higher.

Columns and labels:
Test in all cases: growth of human tumour cells (NCI), 48 h
NCI-H522 = system: NCI-H522
TK-10 = system: TK-10
UO-31 = system: UO-31
NCI-H226 = system: NCI-H226
Hs-578T = system: Hs-578T
MCF7 = system: MCF7
A498 = system: A498
OVCAR-3 = system: OVCAR-3
M14 = system: M14
DU-145 = system: DU-145
MDA-N = system: MDA-N
CAKI-1 = system: CAKI-1
BT-549 = system: BT-549
HCC 2998 = system: HCC 2998
HL-60 = system: HL-60
SK-MEL-28 = system: SK-MEL-28
PC-3 = system: PC-3
SK-OV-3 = system: SK-OV-3
UACC-257 = system: UACC-257
NCI-H460 = system: NCI-H460
SN12C = system: SN12C
KM12 = system: KM12
MOLT-4 = system: MOLT-4
U-251 = system: U-251
LOX IMVI = system: LOX IMVI
SF-295 = system: SF-295
UACC-62 = system: UACC-62
EKVX = system: EKVX
COLO 205 = system: COLO 205
RPMI-8226 = system: RPMI-8226
OVCAR-5 = system: OVCAR-5
RXF 393 = system: RXF 393
NCI-H23 = system: NCI-H23
ACHN = system: ACHN
OVCAR-4 = system: OVCAR-4
HOP-62 = system: HOP-62
SF-539 = system: SF-539
HT-29 = system: HT-29
SK-MEL-5 = system: SK-MEL-5
HCT-15 = system: HCT-15
786-0 = system: 786-0
SNB-19 = system: SNB-19
SR = system: SR
Malme-3M = system: Malme-3M
K562 = system: K562
MDA-MB-231 = system: MDA-MB-231
SW-620 = system: SW-620
CCRF-CEM = system: CCRF-CEM
HCT-116 = system: HCT-116
HOP-92 = system: HOP-92
SNB-75 = system: SNB-75
T47D = system: T47D
NCI/ADR-RES = system: NCI/ADR-RES
A549 = system: A549
MDA-MB-435 = system: MDA-MB-435
SK-MEL-2 = system: SK-MEL-2
SF-268 = system: SF-268
IGROV-1 = system: IGROV-1
OVCAR-8 = system: OVCAR-8

## OC1[C@@H]2[C@@H](O)CCCN2C[C@@H](O)[C@H]1O (some centres undefined)
NCI-H522
  GI50: 19.5 µM (inactive)
TK-10
  GI50: > 100 µM (inactive)
UO-31
  GI50: > 100 µM (inactive)
NCI-H226
  GI50: > 100 µM (inactive)
Hs-578T
  GI50: > 100 µM (inactive)
MCF7
  GI50: > 100 µM (inactive)
A498
  GI50: > 100 µM (inactive)
OVCAR-3
  GI50: > 100 µM (inactive)
M14
  GI50: > 100 µM (inactive)
DU-145
  GI50: > 100 µM (inactive)
MDA-N
  GI50: > 100 µM (inactive)
CAKI-1
  GI50: > 100 µM (inactive)
BT-549
  GI50: > 100 µM (inactive)
HCC 2998
  GI50: > 100 µM (inactive)
HL-60
  GI50: > 100 µM (inactive)
SK-MEL-28
  GI50: > 100 µM (inactive)
PC-3
  GI50: > 100 µM (inactive)
SK-OV-3
  GI50: > 100 µM (inactive)
UACC-257
  GI50: > 100 µM (inactive)
NCI-H460
  GI50: > 100 µM (inactive)
SN12C
  GI50: > 100 µM (inactive)
KM12
  GI50: > 100 µM (inactive)
MOLT-4
  GI50: > 100 µM (inactive)
U-251
  GI50: > 100 µM (inactive)
LOX IMVI
  GI50: > 100 µM (inactive)
SF-295
  GI50: > 100 µM (inactive)
UACC-62
  GI50: > 100 µM (inactive)
EKVX
  GI50: > 100 µM (inactive)
COLO 205
  GI50: > 100 µM (inactive)
RPMI-8226
  GI50: > 100 µM (inactive)
OVCAR-5
  GI50: > 100 µM (inactive)
RXF 393
  GI50: > 100 µM (inactive)
NCI-H23
  GI50: > 100 µM (inactive)
ACHN
  GI50: > 100 µM (inactive)
OVCAR-4
  GI50: > 100 µM (inactive)
HOP-62
  GI50: > 100 µM (inactive)
SF-539
  GI50: > 100 µM (inactive)
HT-29
  GI50: > 100 µM (inactive)
SK-MEL-5
  GI50: > 100 µM (inactive)
HCT-15
  GI50: > 100 µM
786-0
  GI50: > 100 µM (inactive)
SNB-19
  GI50: > 100 µM (inactive)
SR
  GI50: > 100 µM (inactive)
Malme-3M
  GI50: > 100 µM (inactive)
K562
  GI50: > 100 µM (inactive)
MDA-MB-231
  GI50: > 100 µM (inactive)
SW-620
  GI50: > 100 µM (inactive)
CCRF-CEM
  GI50: > 100 µM (inactive)
HCT-116
  GI50: > 100 µM (inactive)
HOP-92
  GI50: > 100 µM (inactive)
SNB-75
  GI50: > 100 µM (inactive)
T47D
  GI50: > 100 µM (inactive)
NCI/ADR-RES
  GI50: > 100 µM (inactive)
A549
  GI50: > 100 µM (inactive)
MDA-MB-435
  GI50: > 100 µM (inactive)
SK-MEL-2
  GI50: > 100 µM (inactive)
SF-268
  GI50: > 100 µM (inactive)
IGROV-1
  GI50: > 100 µM (inactive)
OVCAR-8
  GI50: > 100 µM (inactive)
